Converted amounts (≈) assume the structure as drawn. Where two headings read alike, the source gives them in different places. Peptide text beside a SMILES is read from it.
How the values were obtained:
S. lavendulae [1] = experiment: Elicitor screening, supernatants in disc diffusion assays against B. subtilis; assay type: cell-based, Streptomyces lavendulae; conditions: S. lavendulae grown with ~33 μM elicitor, 5 days; supernatant on B. subtilis disc diffusion
Method: (§1) For the high-throughput-elicitor screening portion of this example, the procedure is described for S. hiroshimensis. An identical procedure was used for S. lavendulae and A. keratiniphila. […] The culture was incubated at 30° C./250 rpm for two days. Then, the mycelia cell mass was pelleted by centrifugation, the supernatant discarded, and a stock solution of 100 mg/mL cell mass was generated in R4 medium. The stock solution was used to prepare the appropriate volume (see below) of R4 medium containing 0.5 mg/mL mycelia cell mass in a 250 mL Erlenmeyer flask. The suspension was homogenized by stirring at room temperature. Subsequently, a MultiFlow Dispenser (from Biotek, Inc.) was used to dispense 150 μL of the suspension into each well of six sterile round bottom 96 well plates (from Corning, Inc.). Candidate elicitors were added from a commercially-available 502-member Natural Products Library (from Enzo Life Sciences, Inc.) using a CYBI-WELL™ automated liquid transfer robot (from CyBio AG). A volume of 0.5 μL was transferred from the compound library into each well to give a final concentration of ^˜33 μM. […]
(§2) The resulting agar plates were assessed visually, and subsequently examined visually for halos. To generate FIG. 2, the halo diameter, if any, was measured and categorized as none (n), weak (w), medium (m), or strong (s) inhibition. […]

A. keratiniphila [2] = experiment: Elicitor screening, supernatants in liquid bioassay against E. coli; assay type: cell-based, Amycolatopsis kerathiniphila; conditions: A. keratiniphila grown with ~33 μM elicitor; supernatant on E. coli, OD600 nm
Method: (§3) For the high-throughput-elicitor screening portion of this example, the procedure is described for S. hiroshimensis. An identical procedure was used for S. lavendulae and A. keratiniphila. […] The culture was incubated at 30° C./250 rpm for two days. Then, the mycelia cell mass was pelleted by centrifugation, the supernatant discarded, and a stock solution of 100 mg/mL cell mass was generated in R4 medium. The stock solution was used to prepare the appropriate volume (see below) of R4 medium containing 0.5 mg/mL mycelia cell mass in a 250 mL Erlenmeyer flask. The suspension was homogenized by stirring at room temperature. Subsequently, a MultiFlow Dispenser (from Biotek, Inc.) was used to dispense 150 μL of the suspension into each well of six sterile round bottom 96 well plates (from Corning, Inc.). Candidate elicitors were added from a commercially-available 502-member Natural Products Library (from Enzo Life Sciences, Inc.) using a CYBI-WELL™ automated liquid transfer robot (from CyBio AG). A volume of 0.5 μL was transferred from the compound library into each well to give a final concentration of ^˜33 μM. Then each plate was covered with a BREATHE-EASY® sealing membrane (from MilliporeSigma) and cultured at 30° C./200 rpm for 5 days. Humidity was maintained in the shaker/incubator by incubating several flasks containing sterile water.
Assays against E. coli were also carried out. In this case, broader elicitation screens were conducted using a ˜500-member natural product library as the source of potential inducers. To increase the throughput of the assays, liquid bioassays were used. […]
From the elicitor plates, after culturing for 5 days, the plates were spun down in a 96-well plate centrifuge and the supernatants (10 μL) transferred to fresh 96-well assay plates, each well containing 100 μL LB-E. coli culture, with the E. coli cells inoculated to an initial OD600 nm OD600 nm of 0.002. The assay plates were cultured at 37° C./200 rpm overnight (10-12 h) and OD600 nm was then determined using a plate reader. […]

S. cebuensis [3] = experiment: Elicitor screening, supernatants on E. coli cultures (OD600 nm); assay type: cell-based, Saccharopolyspora cebuensis; conditions: S. cebuensis grown with elicitor, supernatant on E. coli
Method: Wild-type S. cebuensis cultures were transferred to 96 well-plates and each well was robotically supplemented with a compound from a commercial small molecule library as a source of elicitors. […] To grow the cells, the plates were incubated for a defined period. […] The OD600 nm from each well was normalized and the % E. coli growth thus obtained was plotted as a function of each elicitor, allowing one to identify at least one elicitor corresponding to a second activity greater than the first activity.

B. subtilis ATCC 6633 = experiment: Minimal inhibitory concentration (CLSI methods); assay type: cell-based
Method: (§4) Antibacterial assays with taylorflavin B (8) were carried out by Micromyx, LLC in accordance with methods from the Clinical and Laboratory Standards Institute. Minimal inhibitory concentrations were determined with the following strains: E. coli ATCC 25922, A. baumannii ATCC 19606, V. cholerae BAA-2163, N. gonorrhoeae ATCC 49226, P. aeruginosa ATCC 27853, K. pneumoniae MMX 214. S. aureus ATCC 29213, S. aureus MMX 2011, S. pneumoniae ATCC 49619, S. pyogenes MMX 6253, S. agalactiae MMX 6189, E. faecalis ATCC 29212, E. faecalis MMX 486, B. subtilis ATCC 6633, C. difficile ATCC 700057, B. fragilis ATCC 25285. Assays with taylorflavin A (7) were carried in-house according to the same protocols.

E. coli ATCC 25922 = experiment: Minimal inhibitory concentration (CLSI methods); assay type: cell-based
Method: as §4

P. aeruginosa ATCC 27853 = experiment: Minimal inhibitory concentration (CLSI methods); assay type: cell-based
Method: as §4

S. aureus ATCC 29213 = experiment: Minimal inhibitory concentration (CLSI methods); assay type: cell-based
Method: as §4

E. coli = experiment: In-house bioactivity assays of induced peaks and purified taylorflavins; assay type: cell-based
S. hiroshimensis [4] = experiment: Elicitor screening, supernatants in liquid bioassay against E. coli; assay type: cell-based, Streptomyces hiroshimensis; conditions: S. hiroshimensis grown with ~33 μM elicitor; supernatant on E. coli, OD600 nm
Method: as §3, with “A volume of 0.5 μL was transferred from the compound library into each well to give a final concentration of ^˜33 μM.” left out
(§5) Assays against E. coli were also carried out. In this case, broader elicitation screens were conducted using a ˜500-member natural product library as the source of potential inducers. To increase the throughput of the assays, liquid bioassays were used. Rather than manually spotting each disc, the supernatants were screened by robotically transferring the supernatant from the elicitor plate to 96-well plates inoculated with the E. coli test strain.
(§6) From the elicitor plates, after culturing for 5 days, the plates were spun down in a 96-well plate centrifuge and the supernatants (10 μL) transferred to fresh 96-well assay plates, each well containing 100 μL LB-E. coli culture, with the E. coli cells inoculated to an initial OD600 nm OD600 nm of 0.002. The assay plates were cultured at 37° C./200 rpm overnight (10-12 h) and OD600 nm was then determined using a plate reader. To generate the plot in FIG. 3, the OD600 nm from each well was divided by the average OD600 nm from the entire plate and multiplied by 100 to give the percent growth. This normalization was carried out to account for plate-to-plate variation in growth rates.

S. lavendulae [5] = experiment: as above; assay type: cell-based, Streptomyces lavendulae; conditions: S. lavendulae grown with ~33 μM elicitor; supernatant on E. coli, OD600 nm
Method: as §3, §5
as §6, with “rates. The results for the entire library are shown for S. lavendulae in FIG. 3. The two wells with the highest stimulation (301, 302) and highest inhibition (303, 304) are indicated.” for “rates.”

A. keratiniphila [6] = experiment: Elicitor screening, supernatants in disc diffusion assays against B. subtilis; assay type: cell-based, Amycolatopsis kerathiniphila; conditions: A. keratiniphila grown with ~33 μM elicitor, 5 days; supernatant on B. subtilis disc diffusion
Method: as §1, §2

S. cebuensis [7] = experiment: Validation of elicitors: agar disc diffusion assays; assay type: cell-based, Saccharopolyspora cebuensis; conditions: supernatants of S. cebuensis grown with elicitor
S. hiroshimensis [8] = experiment: Elicitor screening, supernatants in disc diffusion assays against B. subtilis; assay type: cell-based, Streptomyces hiroshimensis; conditions: S. hiroshimensis grown with ~33 μM elicitor, 5 days; supernatant on B. subtilis disc diffusion
Method: as §3, with “Candidate elicitors were added from a commercially-available 502-member Natural Products Library (from Enzo Life Sciences, Inc.) using a CYBI-WELL™ automated liquid transfer robot (from CyBio AG). A volume of 0.5 μL was transferred from the compound library into each well to give a final concentration of ^˜33 μM.” left out

## COc1ccc2c(=O)cc(-c3ccccc3OC)oc2c1 [7,2′-dimethoxyflavone]
S. lavendulae [1]
  induction of anti-B. subtilis metabolite(s): appeared to induce synthesis of anti-B. subtilis metabolite(s)

## Cc1cn([C@H]2C[C@H](N=[N+]=[N-])[C@@H](CO)O2)c(=O)[nH]c1=O [AZT]
A. keratiniphila [2]
  effect of elicitor-induced metabolome on E. coli growth: produce growth-inhibitory compounds

## CCCCC(CC)COC(=O)CC(C(=O)OCC(CC)CCCC)S(=O)(=O)[O-].[Na+] (centres unmarked) [Na-docusate]
S. cebuensis [3]
  effect of elicitor-induced metabolome on E. coli growth: stimulated E. coli growth best

## Cn1nc2[nH]c(=O)n(C)c(=O)c2nc1=O [Taylorflavin A]
B. subtilis ATCC 6633
  minimal inhibitory concentration (MIC): >64 µg/mL
B. subtilis ATCC 6633; listed as taylorflavin A
  minimal inhibitory concentration (MIC): Significantly weaker activity
E. coli ATCC 25922
  minimal inhibitory concentration (MIC): 37.5 µg/mL (≈ 179 µM)
P. aeruginosa ATCC 27853
  minimal inhibitory concentration (MIC): 25 µg/mL (≈ 120 µM)
S. aureus ATCC 29213
  minimal inhibitory concentration (MIC): >64 µg/mL
S. aureus ATCC 29213; listed as taylorflavin A
  minimal inhibitory concentration (MIC): Significantly weaker activity
E. coli
  antibiotic activity / inhibition of E. coli growth: antibiotic activity

## CC(=O)OC1CN2CCC1CC2 (centres unmarked) [aceclidine]
S. hiroshimensis [4]
  effect of elicitor-induced metabolome on E. coli growth: most enhanced E. coli growth

## NC(=O)NC1NC(=O)NC1=O (centres unmarked) [allantoin]
S. lavendulae [5]
  effect of elicitor-induced metabolome on E. coli growth: inhibited it

## COC(=O)[C@H](Cc1ccccc1)NC(=O)[C@@H](N)CC(=O)O [aspartame] (H-Asp-Phe-OMe)
A. keratiniphila [2]
  effect of elicitor-induced metabolome on E. coli growth: enhanced E. coli growth

## CC(=O)O[C@H]1C(=O)[C@@]2(C)[C@H]([C@H](OC(=O)c3ccccc3)[C@]3(O)C[C@H](O)C(C)=C1C3(C)C)[C@]1(OC(C)=O)CO[C@@H]1C[C@@H]2O [baccatin III]
A. keratiniphila [6]
  induction of zones of inhibition against B. subtilis: gave rise to zones of inhibition

## C[C@H](CCC(=O)O)[C@H]1CC[C@H]2[C@@H]3[C@H](O)C[C@@H]4C[C@H](O)CC[C@]4(C)[C@H]3CC[C@]12C [chenodiol]
S. lavendulae [5]
  effect of elicitor-induced metabolome on E. coli growth: support E. coli growth best

## CN(C)CC[C@@H](c1ccc(Cl)cc1)c1ccccn1 [dexchlorpheniramine]
S. hiroshimensis [4]
  effect of elicitor-induced metabolome on E. coli growth: most enhanced E. coli growth

## NS(=O)(=O)c1cc(C(=O)O)c(NCc2ccco2)cc1Cl [furosemide]
S. cebuensis [7]
  halo of growth-inhibition in agar disc diffusion: halo of growth-inhibition

## N[C@H]1C(O)O[C@H](CO)[C@@H](O)[C@@H]1O (some centres unmarked) [glucosamine]
S. hiroshimensis [4]
  effect of elicitor-induced metabolome on E. coli growth: most enhanced E. coli growth

## O[C@H]1[C@H](O)[C@@H](O)[C@H](O)[C@@H](O)[C@H]1O [inositol]
S. lavendulae [5]
  effect of elicitor-induced metabolome on E. coli growth: inhibited it

## CC(C)NCC(O)c1ccc(O)c(O)c1 (centres unmarked) [isoproterenol]
S. lavendulae [5]
  effect of elicitor-induced metabolome on E. coli growth: support E. coli growth best

## COc1cc2oc(=O)ccc2cc1O [isoscopoletin]
A. keratiniphila [6]
  induction of zones of inhibition against B. subtilis: gave rise to zones of inhibition

## CC12CC3CC(C)(C1)CC(N)(C3)C2 [memantine]
S. hiroshimensis [4]
  effect of elicitor-induced metabolome on E. coli growth: inhibited E. coli growth best

## Cn1cc[nH]c1=S [methimazole]
S. cebuensis [3]
  effect of elicitor-induced metabolome on E. coli growth: stimulated E. coli growth best

## CC[C@@H](CO)NC(=O)[C@@H]1C=C2c3cccc4[nH]cc(c34)C[C@H]2N(C)C1 [methylergonovine]
S. hiroshimensis [4]
  effect of elicitor-induced metabolome on E. coli growth: inhibited E. coli growth best

## NC(=O)CN1CCCC1=O [piracetam]
S. cebuensis [3]
  effect of elicitor-induced metabolome on E. coli growth: stimulated E. coli growth best

## COc1cc(NC(C)CCCN)c2ncccc2c1 (centres unmarked) [primaquine]
S. hiroshimensis [8]
  induction of anti-B. subtilis metabolite(s): appeared to elicit anti-B. subtilis metabolite(s)

## CCN(CC)CCOC(=O)c1ccc(N)cc1 [procaine]
S. hiroshimensis [8]
  induction of anti-B. subtilis metabolite(s): appeared to elicit anti-B. subtilis metabolite(s)
S. cebuensis [3]
  effect of elicitor-induced metabolome on E. coli growth: inhibited it

## CCN1CCCC1CNC(=O)c1cc(S(N)(=O)=O)ccc1OC (centres unmarked) [sulpiride]
A. keratiniphila [2]
  effect of elicitor-induced metabolome on E. coli growth: produce growth-inhibitory compounds

Source: patent US12436145B2, “Cryptic antibiotics and methods for detecting bioactive cryptic metabolites” (THE TRUSTEES OF PRINCETON UNIVERSITY, priority 2019, dated 2025)
